According to patent US11931424B2, “Combination MCL-1 inhibitors with anti-body drug conjugates” (Gilead Sciences, Inc., priority 2021, dated 2024):

Tested on: panel of breast cancer cell lines
Test: Compound A with targeted agents and chemotherapies, 72-hour in vitro proliferation assays
Format: cell-based
Settings: compound A × partner, 72-hour proliferation

O=C(c1cc(Cc2n[nH]c(=O)c3ccccc23)ccc1F)N1CCN(C(=O)C2CC2)CC1 [Olaparib]
Best CI (AU565 cell line): 0.75
Bliss Volume (AU565 cell line): 2.11
HSA volume (AU565 cell line): −1.92
Loewe Volume (AU565 cell line): 0.98
Synergy Score (AU565 cell line): 2.27
Best CI (BT-20 cell line): 0.88
Bliss Volume (BT-20 cell line): 0.80
HSA volume (BT-20 cell line): 0.38
Loewe Volume (BT-20 cell line): 0.63
Synergy Score (BT-20 cell line): 4.78
Best CI (CAL-51 cell line): 0.55
Bliss Volume (CAL-51 cell line): 1.50
HSA volume (CAL-51 cell line): 1.03
Loewe Volume (CAL-51 cell line): 2.21
Synergy Score (CAL-51 cell line): 1.89
Best CI (CAL-85-1 cell line): 0.67
Bliss Volume (CAL-85-1 cell line): 4.52
HSA volume (CAL-85-1 cell line): 5.66
Loewe Volume (CAL-85-1 cell line): 6.67
Synergy Score (CAL-85-1 cell line): 5.10
Best CI (CAL-120 cell line): 0.85
Bliss Volume (CAL-120 cell line): 3.31
HSA volume (CAL-120 cell line): −3.93
Loewe Volume (CAL-120 cell line): −3.49
Synergy Score (CAL-120 cell line): 0.11
Best CI (CAL-148 cell line): 0.27
Bliss Volume (CAL-148 cell line): 3.34
HSA volume (CAL-148 cell line): 5.39
Loewe Volume (CAL-148 cell line): 5.40
Synergy Score (CAL-148 cell line): 9.33
Best CI (CAMA-1 cell line): 1.12
Bliss Volume (CAMA-1 cell line): 5.62
HSA volume (CAMA-1 cell line): 2.59
Loewe Volume (CAMA-1 cell line): 3.95
Synergy Score (CAMA-1 cell line): 4.78
Best CI (DU-4475 cell line): 1.00
Bliss Volume (DU-4475 cell line): 7.40
HSA volume (DU-4475 cell line): 5.68
Loewe Volume (DU-4475 cell line): 5.80
Synergy Score (DU-4475 cell line): 4.61
Best CI (EVSA-T cell line): 1.17
Bliss Volume (EVSA-T cell line): 6.05
HSA volume (EVSA-T cell line): 3.16
Loewe Volume (EVSA-T cell line): 3.21
Synergy Score (EVSA-T cell line): 4.47
Best CI (HCC38): 0.72
Bliss Volume (HCC38): 6.78
HSA volume (HCC38): 7.48
Loewe Volume (HCC38): 7.01
Synergy Score (HCC38): 8.69
Best CI (HCC70): 0.94
Bliss Volume (HCC70): 6.93
HSA volume (HCC70): 6.07
Loewe Volume (HCC70): 6.54
Synergy Score (HCC70): 12.18
Best CI (HCC1143): 0.24
Bliss Volume (HCC1143): 4.87
HSA volume (HCC1143): 3.84
Loewe Volume (HCC1143): 3.62
Synergy Score (HCC1143): 4.20
Best CI (HCC1569): 0.84
Bliss Volume (HCC1569): 7.47
HSA volume (HCC1569): 5.26
Loewe Volume (HCC1569): 8.00
Synergy Score (HCC1569): 4.98
Best CI (HCC1806): 0.21
Bliss Volume (HCC1806): 7.25
HSA volume (HCC1806): 8.26
Loewe Volume (HCC1806): 8.49
Synergy Score (HCC1806): 7.73
Best CI (HCC1937): 0.63
Bliss Volume (HCC1937): 2.27
HSA volume (HCC1937): −1.83
Loewe Volume (HCC1937): 3.06
Synergy Score (HCC1937): 1.77
Best CI (HCC1954): 0.92
Bliss Volume (HCC1954): 1.68
HSA volume (HCC1954): 0.48
Loewe Volume (HCC1954): 1.64
Synergy Score (HCC1954): 4.49
Best CI (HCC2218): 0.88
Bliss Volume (HCC2218): −1.34
HSA volume (HCC2218): −1.12
Loewe Volume (HCC2218): −1.71
Synergy Score (HCC2218): 2.66
Best CI (HDQ-P1): 0.51
Bliss Volume (HDQ-P1): 3.81
HSA volume (HDQ-P1): −0.38
Loewe Volume (HDQ-P1): 3.65
Synergy Score (HDQ-P1): 1.22
Best CI (HMC-1-8): 0.78
Bliss Volume (HMC-1-8): 10.54
HSA volume (HMC-1-8): 5.78
Loewe Volume (HMC-1-8): 6.22
Synergy Score (HMC-1-8): 10.86
Best CI (JIMT-1): 0.59
Bliss Volume (JIMT-1): −1.42
HSA volume (JIMT-1): −0.34
Loewe Volume (JIMT-1): −1.35
Synergy Score (JIMT-1): 0.61
HSA volume (KPL-1): 1.49
